From patent US7419980B2, “Fused-aryl and heteroaryl derivatives and methods of their use” (Wyeth, priority 2003, dated 2008)
pEC50: −log10 of the molar value. Where a name gives a salt, the structure may show the parent alone. Read-outs that look alike come from different tables or passages of the source.

Target: T1, human hNET (Homo sapiens, UniProt P23975)
T1 construct: expressed in transfected cells; host or cells: MDCK-Net6 (MDCK cells stably transfected with hNET)
Assay: Norepinephrine (NE) uptake assay in MDCK-Net6 cells
Format: cell-based
Experimental: MDCK-Net6 cells, stably transfected with human hNET (Pacholczyk, T., R. D. Blakely, and S. G. Amara, Nature, 1991, 350(6316): p. 350-4) were cultured in growth medium containing high glucose DMEM (Gibco, Cat. No. 11995), 10% FBS (dialyzed, heat-inactivated, US Bio-Technologies, Lot FBD1129HI) and 500 μg/ml G418 (Gibco, Cat. No. 10131). Cells were plated at 300,000/T75 flask and cells were split twice weekly. The JAR cell line (human placental choriocarcinoma) was purchased from ATCC (Cat. No. HTB-144). The cells were cultured in growth medium containing RPMI 1640 (Gibco, Cat. No. 72400), 10% FBS (Irvine, Cat. No. 3000), 1% sodium pyruvate (Gibco, Cat. No. 1136) and 0.25% glucose. Cells were plated at 250,000 cells/T75 flask and split twice weekly. For all assays, cells were plated in Wallac 96-well sterile plates (PerkinElmer, Cat. No. 3983498).
On day 1, cells were plated at 3,000 cells/well in growth medium and maintained in a cell incubator (37° C., 5% CO2). On day 2, growth medium was replaced with 200 μl of assay buffer (25 mM HEPES; 120 mM NaCl; 5 mM KCl; 2.5 mM CaCl2; 1.2 mM MgSO4; 2 mg/ml glucose (pH 7.4, 37° C.)) containing 0.2 mg/ml ascorbic acid and 10 μM pargyline. Plates containing cells with 200 μl of assay buffer were equilibrated for 10 minutes at 37° C. prior to addition of compounds. A stock solution of desipramine was prepared in DMSO (10 mM) and delivered to triplicate wells containing cells for a final tert concentration of 1 μM. Data from these wells were used to define non-specific NE uptake (minimum NE uptake). Test compounds were prepared in DMSO (10 mM) and diluted in assay buffer according to tert range (1 to 10,000 nM). Twenty-five microliters of assay buffer (maximum NE uptake) or tert compound were added directly to triplicate wells containing cells in 200 μl of assay buffer. The cells in assay buffer with tert compounds were incubated for 20 minutes at 37° C. To initiate the NE uptake, [^3H]NE diluted in assay buffer (120 nM final assay concentration) was delivered in 25 μl aliquots to each well and the plates were incubated for 5 minutes (37° C.). The reaction was terminated by decanting the supernatant from the plate. The plates containing cells were washed twice with 200 μl assay buffer (37° C.) to remove free radioligand. The plates were then inverted, left to dry for 2 minutes, then reinverted and air-dried for an additional 10 minutes. The cells were lysed in 25 μl of 0.25 N NaOH solution (4° C.), placed on a shake table and vigorously shaken for 5 minutes. After cell lysis, 75 μl of scintillation cocktail was added to each well and the plates were sealed with film tape. The plates were returned to the shake table and vigorously shaken for a minimum of 10 minutes to ensure adequate partitioning of organic and aqueous solutions. The plates were counted in a Wallac Microbeta counter (PerkinElmer) to collect the raw cpm data.
For each experiment, a data stream of cpm values collected from the Wallac Microbeta counter was downloaded to a Microsoft Excel statistical application program. Calculations of EC50 values were made using the transformed-both-sides logistic dose response program written by Wyeth Biometrics Department. The statistical program uses mean cpm values from wells representing maximum binding or uptake (assay buffer) and mean cpm values from wells representing minimum binding or uptake ((1 μM desipramine (hNET) or 1 μM paroxetine (hSERT)). Estimation of the EC50 value was completed on a log scale and the line was fit between the maximum and minimum binding or uptake values. All graphic data representation was generated by normalizing each data point to a mean percent based on the maximum and minimum binding or uptake values. The EC50 values reported from multiple experiments were calculated by pooling the raw data from each experiment and analyzing the pooled data as one experiment.

[1] = 1 μM test compound, [3H]NE uptake, MDCK-Net6 cells, read-out: % Inhibition @ 1 μM (hNET)
[2] = MDCK-Net6, read-out: % Inhibition @ 1 μM (hNET)

T1 sequence (P23975 whole entry): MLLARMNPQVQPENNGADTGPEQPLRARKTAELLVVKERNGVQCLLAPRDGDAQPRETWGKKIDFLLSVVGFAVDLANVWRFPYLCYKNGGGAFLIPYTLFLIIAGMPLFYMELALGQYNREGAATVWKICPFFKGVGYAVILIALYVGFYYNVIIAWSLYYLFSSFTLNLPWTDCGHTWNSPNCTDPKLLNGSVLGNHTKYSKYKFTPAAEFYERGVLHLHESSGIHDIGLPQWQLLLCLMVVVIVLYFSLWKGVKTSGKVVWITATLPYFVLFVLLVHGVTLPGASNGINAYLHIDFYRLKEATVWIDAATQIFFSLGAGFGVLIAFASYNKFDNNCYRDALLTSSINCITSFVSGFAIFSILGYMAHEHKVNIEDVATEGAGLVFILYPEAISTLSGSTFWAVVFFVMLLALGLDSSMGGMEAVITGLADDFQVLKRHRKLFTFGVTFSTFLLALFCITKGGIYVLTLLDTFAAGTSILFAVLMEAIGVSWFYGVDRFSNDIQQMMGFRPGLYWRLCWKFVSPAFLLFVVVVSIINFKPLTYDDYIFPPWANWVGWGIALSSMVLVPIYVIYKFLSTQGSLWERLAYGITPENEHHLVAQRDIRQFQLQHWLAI

Compound	pEC50 ([3H]NE uptake, MDCK-Net6 cells)	inhibition at 1 µM [1] [%]	inhibition at 1 µM [2] [%]
OC1(C(CN2CCNCC2)c2cccc(Cl)c2)CCCCC1 (stereo not drawn) [Example 1, 1-[1-(3-chlorophenyl)-2-piperazin-1-ylethyl]cyclohexanol Dihydrochloride]	7.74		
OC1(C(CN2CCNCC2)c2ccc3ccccc3c2)CCC1 (stereo not drawn) [Example 5, 1-[1-(2-naphthyl)-2-piperazin-1-ylethyl]cyclobutanol Dihydrochloride]	6.80	97	
OC1(C(CN2CCNCC2)c2cccc3ccccc23)CCCCC1 (stereo not drawn) [Example 21, 1-[1-(1-naphthyl)-2-piperazin-1-ylethyl]cyclohexanol Dihydrochloride]	7.24	86	
OC1(C(CN2CCNCC2)c2cccc3ccccc23)CCCC1 (stereo not drawn) [Example 45, 1-[1-(1-naphthyl)-2-piperazin-1-ylethyl]cyclopentanol Dihydrochloride]		44	
CCC(O)(CC)C(CN1CCNCC1)c1cccc2ccccc12 (stereo not drawn) [Example 53, 3-ethyl-2-(1-naphthyl)-1-piperazin-1-ylpentan-3-ol Dihydrochloride]		34	
CN1CCN(CC(c2cccc3ccccc23)C2(O)CCCC2)CC1 (stereo not drawn) [Example 56, 1-[2-(4-methylpiperazin-1-yl)-1-(1-naphthyl)ethyl]cyclopentanol Dihydrochloride]		36	
CN1CCC(O)(C(CN2CCNCC2)c2ccc3ccccc3c2)CC1 (stereo not drawn) [Example 59, 1-methyl-4-[1-(2-naphthyl)-2-piperazin-1-ylethyl]piperidin-4-ol Dihydrochloride]		33	
OC1(C(CN2CCNCC2)c2ccc3ccccc3c2)CCCCC1 (stereo not drawn) [Example 63, 1-[1-(2-naphthyl)-2-piperazin-1-ylethyl]cyclohexanol Dihydrochloride]		26	
CN1CCN(CC(c2ccc3ccccc3c2)C2(O)CCCCC2)CC1 (stereo not drawn) [Example 64, 1-[2-(4-methylpiperazin-1-yl)-1-(2-naphthyl)ethyl]cyclohexanol Dihydrochloride]		28	
OC1(C(CN2CCNCC2)c2cccc3ccccc23)CCC1 (stereo not drawn) [Example 68, 1-[1-(1-naphthyl)-2-piperazin-1-ylethyl]cyclobutanol Dihydrochloride]		23	
CN1CCN(CC(c2cccc3ccccc23)C2(O)CCC2)CC1 (stereo not drawn) [Example 69, 1-[2-(4-methylpiperazin-1-yl)-1-(1-naphthyl)ethyl]cyclobutanol Dihydrochloride]		26	
CC(C)(C)C1CCC(O)(C(CN2CCNCC2)c2cccc3ccccc23)CC1 (stereo not drawn) [Example 76, 4-tert-butyl-1-[1-(1-naphthyl)-2-piperazin-1-ylethyl]cyclohexanol Dihydrochloride]		22	
CCC(O)(CC)C(CN1CCN(C)CC1)c1cccc2ccccc12 (stereo not drawn) [Example 89, 3-ethyl-1-(4-methylpiperazin-1-yl)-2-(1-naphthyl)pentan-3-ol Dihydrochloride]		15	
CCC1CCC(O)(C(CN2CCNCC2)c2cccc3ccccc23)CC1 (stereo not drawn) [Example 91, 4-ethyl-1-[1-(1-naphthyl)-2-piperazin-1-ylethyl]cyclohexanol Dihydrochloride]		14	
CC1CCC(O)(C(CN2CCNCC2)c2cccc3ccccc23)CC1 (stereo not drawn) [Example 97, 4-methyl-1-[1-(1-naphthyl)-2-piperazin-1-ylethyl]cyclohexanol Dihydrochloride]		5	
CN1CCN(CC(c2cccc3ccccc23)C2(O)CCC(C(C)(C)C)CC2)CC1 (stereo not drawn) [Example 100, 4-tert-butyl-1-[2-(4-methylpiperazin-1-yl)-1-(1-naphthyl)ethyl]cyclohexanol Dihydrochloride]		4	

Compound	pEC50 ([3H]NE uptake, MDCK-Net6 cells)	inhibition at 1 µM [1] [%]	inhibition at 1 µM [2] [%]
CN1CCC(O)(C(CN2CCOCC2)c2ccc3ccccc3c2)CC1 (stereo not drawn) [Example 102, 1-methyl-4-[2-morpholin-4-yl-1-(2-naphthyl)ethyl]piperidin-4-ol Hydrochloride]		3	
OC1(C(CN2CCOCC2)c2ccc3ccccc3c2)CCCCC1 (stereo not drawn) [Example 106, 1-[2-morpholin-4-yl-1-(2-naphthyl)ethyl]cyclohexanol Hydrochloride]		2	
OC1(C(CN2CCOCC2)c2ccc3ccccc3c2)CCC1 (stereo not drawn) [Example 109, 1-[2-morpholin-4-yl-1-(2-naphthyl)ethyl]cyclobutanol Hydrochloride]		0	
OC1(C(CN2CCNCC2)c2cc(Cl)sc2Cl)CCCCC1 (stereo not drawn) [Example 141, 1-[1-(2,5-dichlorothien-3-yl)-2-piperazine-1-ylethyl]cyclohexanol Dihydrochloride]	6.62		94
OC1(C(CN2CCNCC2)c2ccc(Cl)s2)CCCCC1 (stereo not drawn) [Example 142, 1-[1-(5-chlorothien-2-yl)-2-piperazin-1-ylethyl]cyclohexanol Dihydrochloride]		51	
OC1(C(CN2CCNCC2)c2ccc(Br)s2)CCCCC1 (stereo not drawn) [Example 143, 1-[1-(5-bromothien-2-yl)-2-piperazin-1-ylethyl]cyclohexanol Dihydrochloride]		47	
OC1(C(CN2CCNCC2)c2csc(Cl)c2)CCCCC1 (stereo not drawn) [Example 144, 1-[1-(5-chlorothien-3-yl)-2-piperazin-1-ylethyl]cyclohexanol Dihydrochloride]	7.00		86
NC1CCN(CC(c2csc(Cl)c2)C2(O)CCCCC2)CC1 (stereo not drawn) [Example 145, 1-[2-(4-aminopiperidin-1-yl)-1-(5-chlorothien-3-yl)ethyl]cyclohexanol Dihydrochloride]			38
OC1(C(CN2CCNCC2)c2csc3ccccc23)CCCCC1 (stereo not drawn) [Example 146, 1-[1-(1-benzothien-3-yl)-2-piperazin-1-ylethyl]cyclohexanol Dihydrochloride]	6.92		82
Cn1cc(C(CN2CCNCC2)C2(O)CCCCC2)c2ccccc21 (stereo not drawn) [Example 154, 1-[1-(1-methyl-1H-indol-3-yl)-2-piperazin-1-ylethyl]cyclohexanol Dihydrochloride]		32	
OC1(C(CN2CCNCC2)c2c[nH]c3ccccc23)CCCCC1 (stereo not drawn) [Example 155, 1-[1-(1H-indol-3-yl)-2-piperazin-1-ylethyl]cyclohexanol Dihydrochloride]		21	
OC1(C(CN2CCNCC2)c2ccsc2Cl)CCCCC1 (stereo not drawn) [Example 156, 1-[1-(2-chlorothien-3-yl)-2-piperazin-1-ylethyl]cyclohexanol Dihydrochloride]	6.14		55
CN1CCN(CC(c2csc(Cl)c2)C2(O)CCCCC2)CC1 (stereo not drawn) [Example 159, 1-[1-(5-chlorothien-3-yl)-2-(4-methylpiperazin-1-yl)ethyl]cyclohexanol Dihydrochloride]	7.60		88
CN1CCN(C[C@@H](c2csc(Cl)c2)C2(O)CCCCC2)CC1 [Example 258, 1-[(1R)-1-(5-chlorothien-3-yl)-2-(4-methylpiperazin-1-ylethyl]cyclohexanol Dihydrochloride]			91
CN1CCN(C[C@H](c2csc(Cl)c2)C2(O)CCCCC2)CC1 [Example 259, 1-[(1S)-1-(5-chlorothien-3-yl)-2-(4-methylpiperazin-1-yl)ethyl]cyclohexanol Dihydrochloride]			20
OC1(C(CN2CCNCC2)c2csc3ccc(Cl)cc23)CCCCC1 (stereo not drawn) [Example 260, 1-[1-(5-chloro-1-benzothien-3-yl)-2-piperazin-1-ylethyl]cyclohexanol Dihydrochloride]		75	
